In ChEMBL document CHEMBL4364276, “Discovery of 4-phenyl-2H-benzo[b][1,4]oxazin-3(4H)-one derivatives as potent and orally active PI3K/mTOR dual inhibitors” (Eur J Med Chem, 2019):

Assays:
[1] = molecular target: MAP kinase-activated protein kinase 5 (Homo sapiens) (UniProt Q8IW41); experiment: Inhibition of human MAPKAPK5 at 100 nM using KKLNRTLSVA as substrate by [gamma-33P]-ATP assay
[2] = molecular target: Serine/threonine-protein kinase 16 (Homo sapiens) (UniProt O75716); experiment: Inhibition of human STK16 at 100 nM using MBP as substrate by [gamma-33P]-ATP assay
Sequence of Serine/threonine-protein kinase 16 (Homo sapiens) (O75716 whole entry): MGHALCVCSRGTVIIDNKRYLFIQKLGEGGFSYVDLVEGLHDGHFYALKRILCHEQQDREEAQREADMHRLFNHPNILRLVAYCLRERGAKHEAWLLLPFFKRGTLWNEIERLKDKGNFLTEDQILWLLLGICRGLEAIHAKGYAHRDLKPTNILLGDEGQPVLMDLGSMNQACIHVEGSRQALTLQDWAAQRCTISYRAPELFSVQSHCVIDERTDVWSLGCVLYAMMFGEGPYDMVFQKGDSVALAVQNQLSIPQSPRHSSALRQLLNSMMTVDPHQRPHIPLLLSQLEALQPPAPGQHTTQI

[3] = molecular target: Serine/threonine-protein kinase ICK (Homo sapiens) (UniProt Q9UPZ9); experiment: Inhibition of human LCK2 at 100 nM using MBP as substrate by [gamma-33P]-ATP assay
[4] = molecular target: Bone morphogenetic protein receptor type-1A (Homo sapiens) (UniProt P36894); experiment: Inhibition of human ALK3 at 100 nM using casein as substrate by [gamma-33P]-ATP assay
Sequence of Bone morphogenetic protein receptor type-1A (Homo sapiens) (P36894 whole entry): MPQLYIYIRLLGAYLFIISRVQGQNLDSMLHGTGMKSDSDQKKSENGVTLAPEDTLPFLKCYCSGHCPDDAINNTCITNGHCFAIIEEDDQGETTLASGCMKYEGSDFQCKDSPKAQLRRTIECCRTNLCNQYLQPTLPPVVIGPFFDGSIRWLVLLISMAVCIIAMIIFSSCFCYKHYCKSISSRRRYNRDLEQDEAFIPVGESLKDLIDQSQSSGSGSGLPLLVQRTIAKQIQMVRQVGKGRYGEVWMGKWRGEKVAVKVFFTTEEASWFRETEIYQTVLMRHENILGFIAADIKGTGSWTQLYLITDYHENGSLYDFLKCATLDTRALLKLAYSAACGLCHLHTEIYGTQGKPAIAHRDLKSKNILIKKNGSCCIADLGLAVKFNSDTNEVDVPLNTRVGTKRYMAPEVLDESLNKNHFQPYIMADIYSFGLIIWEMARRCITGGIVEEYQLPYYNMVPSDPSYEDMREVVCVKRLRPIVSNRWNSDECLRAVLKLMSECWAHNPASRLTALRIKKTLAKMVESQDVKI

[5] = molecular target: Muscle, skeletal receptor tyrosine-protein kinase (Homo sapiens) (UniProt O15146); experiment: Inhibition of human MUSK at 100 nM using MBP as substrate by [gamma-33P]-ATP assay
[6] = molecular target: Non-receptor tyrosine-protein kinase TYK2 (Homo sapiens) (UniProt P29597); experiment: Inhibition of human TYK2 at 100 nM using KKSRGDYMTMQIG as substrate by [gamma-33P]-ATP assay
Sequence of Non-receptor tyrosine-protein kinase TYK2 (Homo sapiens) (P29597 whole entry): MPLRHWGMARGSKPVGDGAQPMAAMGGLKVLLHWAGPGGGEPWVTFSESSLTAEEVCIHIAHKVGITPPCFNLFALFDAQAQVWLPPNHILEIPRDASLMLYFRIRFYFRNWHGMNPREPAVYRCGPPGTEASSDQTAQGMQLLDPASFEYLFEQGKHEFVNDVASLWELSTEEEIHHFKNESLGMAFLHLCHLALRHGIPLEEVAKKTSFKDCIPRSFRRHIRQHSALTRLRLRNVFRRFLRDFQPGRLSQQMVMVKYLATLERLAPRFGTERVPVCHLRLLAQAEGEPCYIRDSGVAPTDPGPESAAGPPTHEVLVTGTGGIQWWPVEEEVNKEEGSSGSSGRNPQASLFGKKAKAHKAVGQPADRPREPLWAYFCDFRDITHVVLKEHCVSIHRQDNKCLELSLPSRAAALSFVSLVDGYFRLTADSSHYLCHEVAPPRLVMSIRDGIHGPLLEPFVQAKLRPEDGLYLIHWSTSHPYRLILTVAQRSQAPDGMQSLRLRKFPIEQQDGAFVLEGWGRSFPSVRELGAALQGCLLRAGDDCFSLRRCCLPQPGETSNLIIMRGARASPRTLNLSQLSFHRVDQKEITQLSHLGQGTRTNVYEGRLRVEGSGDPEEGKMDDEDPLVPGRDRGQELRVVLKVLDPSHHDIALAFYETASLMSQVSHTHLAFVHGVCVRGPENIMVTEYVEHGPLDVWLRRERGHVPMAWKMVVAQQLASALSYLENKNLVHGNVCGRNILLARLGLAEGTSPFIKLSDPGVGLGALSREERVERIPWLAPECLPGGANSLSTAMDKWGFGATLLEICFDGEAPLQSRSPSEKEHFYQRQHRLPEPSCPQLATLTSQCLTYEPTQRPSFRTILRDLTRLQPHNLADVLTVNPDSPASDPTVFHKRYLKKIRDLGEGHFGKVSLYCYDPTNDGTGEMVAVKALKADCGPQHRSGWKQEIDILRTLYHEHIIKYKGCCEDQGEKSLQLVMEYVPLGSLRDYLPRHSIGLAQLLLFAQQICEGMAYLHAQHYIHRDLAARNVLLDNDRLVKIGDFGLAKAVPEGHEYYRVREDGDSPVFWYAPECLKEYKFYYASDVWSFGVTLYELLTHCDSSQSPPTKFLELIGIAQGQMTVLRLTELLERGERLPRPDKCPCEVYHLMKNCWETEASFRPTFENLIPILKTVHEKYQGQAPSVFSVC

[7] = molecular target: MAP/microtubule affinity-regulating kinase 4 (Homo sapiens) (UniProt Q96L34); experiment: Inhibition of human MARK4 at 100 nM using KKKVSRSGLYRSPSMPENLNRPR as substrate by [gamma-33P]-ATP assay
[8] = molecular target: Serine/threonine-protein kinase Nek1 (Homo sapiens) (UniProt Q96PY6); experiment: Inhibition of human NEK1 at 100 nM using MBP as substrate by [gamma-33P]-ATP assay
[9] = molecular target: Mitogen-activated protein kinase 10 (Homo sapiens) (UniProt P53779); experiment: Inhibition of human JNK3 at 100 nM using ATF2 as substrate by [gamma-33P]-ATP assay
[10] = molecular target: CDK1/Cyclin A (Homo sapiens) (UniProt P06493+P20248); experiment: Inhibition of human CDK1/Cyclin-A at 100 nM using Histone H1 as substrate by [gamma-33P]-ATP assay; type: protein-complex assay
[11] = molecular target: Dual specificity mitogen-activated protein kinase kinase 6 (Homo sapiens) (UniProt P52564); experiment: Inhibition of human MKK6 at 100 nM using p38alpha as substrate by [gamma-33P]-ATP assay
Sequence of Dual specificity mitogen-activated protein kinase kinase 6 (Homo sapiens) (P52564 whole entry): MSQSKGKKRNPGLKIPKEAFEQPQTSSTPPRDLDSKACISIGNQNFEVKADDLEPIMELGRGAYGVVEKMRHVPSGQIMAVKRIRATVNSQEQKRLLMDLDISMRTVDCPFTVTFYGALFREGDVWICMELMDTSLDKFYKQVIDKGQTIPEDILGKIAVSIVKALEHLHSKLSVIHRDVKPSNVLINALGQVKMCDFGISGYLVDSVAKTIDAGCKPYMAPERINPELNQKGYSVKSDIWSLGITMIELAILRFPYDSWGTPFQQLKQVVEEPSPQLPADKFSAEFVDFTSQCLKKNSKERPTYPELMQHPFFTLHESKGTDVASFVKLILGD

[12] = molecular target: Serine/threonine-protein kinase 32B (Homo sapiens) (UniProt Q9NY57); experiment: Inhibition of human STK32B at 100 nM using MBP as substrate by [gamma-33P]-ATP assay
Sequence of Serine/threonine-protein kinase 32B (Homo sapiens) (Q9NY57 whole entry): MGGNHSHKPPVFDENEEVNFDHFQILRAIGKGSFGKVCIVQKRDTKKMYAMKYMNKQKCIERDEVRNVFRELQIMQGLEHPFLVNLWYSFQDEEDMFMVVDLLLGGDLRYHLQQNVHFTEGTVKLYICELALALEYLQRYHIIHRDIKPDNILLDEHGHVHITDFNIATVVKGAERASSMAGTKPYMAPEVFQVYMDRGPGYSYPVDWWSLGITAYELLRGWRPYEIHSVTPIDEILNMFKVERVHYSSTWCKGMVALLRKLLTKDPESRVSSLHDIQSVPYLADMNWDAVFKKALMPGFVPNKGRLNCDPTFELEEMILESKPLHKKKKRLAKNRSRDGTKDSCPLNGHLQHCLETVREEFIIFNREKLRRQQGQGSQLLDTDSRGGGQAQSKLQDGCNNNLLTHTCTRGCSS

[13] = molecular target: Serine/threonine-protein kinase 24 (Homo sapiens) (UniProt Q9Y6E0); experiment: Inhibition of human MST3 at 100 nM using MBP as substrate by [gamma-33P]-ATP assay
HeLa [14] = experiment: Antitumor activity against human HeLa cells xenografted in BALB/c nude mouse assessed as tumor growth inhibition at 20 mg/kg, ig administered for 30 days measured every 3 days during compound dosing relative to control; type: functional; conditions: po, read-out: TGI
[15] = molecular target: Receptor tyrosine-protein kinase erbB-2 (Homo sapiens) (UniProt P04626); experiment: Inhibition of human ERBB2 at 100 nM using poly[Glu:Tyr] (4:1) as substrate by [gamma-33P]-ATP assay
[16] = molecular target: Mitogen-activated protein kinase kinase kinase 7 (Homo sapiens) (UniProt O43318); experiment: Inhibition of human TAK1 at 100 nM using casein as substrate by [gamma-33P]-ATP assay
[17] = molecular target: Ribosomal protein S6 kinase beta-2 (Homo sapiens) (UniProt Q9UBS0); experiment: Inhibition of human p70S6Kb at 100 nM using KKRNRTLTK as substrate by [gamma-33P]-ATP assay
[18] = molecular target: Calcium/calmodulin-dependent protein kinase type II subunit gamma (Homo sapiens) (UniProt Q13555); experiment: Inhibition of human CAMK2G at 100 nM using KKLNRTLSFAEPG as substrate by [gamma-33P]-ATP assay
[19] = molecular target: Eukaryotic translation initiation factor 2-alpha kinase 1 (Homo sapiens) (UniProt Q9BQI3); experiment: Inhibition of human EIF2AK1 at 100 nM using MBP as substrate by [gamma-33P]-ATP assay
Homo sapiens = species on record: Homo sapiens; experiment: Inhibition of human AMPK (A2/B1/G1) at 100 nM using HMRSAMSGLHLVKRR as substrate by [gamma-33P]-ATP assay
[20] = molecular target: Dual specificity mitogen-activated protein kinase kinase 7 (Homo sapiens) (UniProt O14733); experiment: Inhibition of human MKK7 at 100 nM using JNK as substrate by [gamma-33P]-ATP assay
Sequence of Dual specificity mitogen-activated protein kinase kinase 7 (Homo sapiens) (O14733 whole entry): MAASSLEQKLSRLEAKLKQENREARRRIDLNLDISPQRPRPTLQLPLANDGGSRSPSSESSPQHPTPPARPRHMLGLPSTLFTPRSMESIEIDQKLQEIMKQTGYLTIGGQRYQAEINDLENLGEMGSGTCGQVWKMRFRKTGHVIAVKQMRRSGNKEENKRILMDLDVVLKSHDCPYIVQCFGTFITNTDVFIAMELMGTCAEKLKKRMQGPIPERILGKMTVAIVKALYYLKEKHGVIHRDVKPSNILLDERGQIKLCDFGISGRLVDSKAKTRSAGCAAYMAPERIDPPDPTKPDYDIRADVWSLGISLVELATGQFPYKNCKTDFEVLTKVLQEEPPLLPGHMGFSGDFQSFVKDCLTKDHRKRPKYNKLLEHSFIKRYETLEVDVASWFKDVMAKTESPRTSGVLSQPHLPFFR

[21] = molecular target: Cyclin-dependent kinase 5/CDK5 activator 1 (Homo sapiens) (UniProt Q00535+Q15078); experiment: Inhibition of human CDK5/p25 at 100 nM using histone H1 as substrate by [gamma-33P]-ATP assay; type: protein-complex assay
[22] = Toxicity in BALB/c mouse xenografted with human HeLa cells assessed as reduction in body weight at 20 to 50 mg/kg, ig administered for 30 days; type: organism-based; conditions: in vivo, po, 720 h
[23] = molecular target: Receptor tyrosine-protein kinase erbB-4 (Homo sapiens) (UniProt Q15303); experiment: Inhibition of human ERBB4 at 100 nM using poly[Glu:Tyr] (4:1) as substrate by [gamma-33P]-ATP assay
[24] = molecular target: cGMP-dependent protein kinase 2 (Homo sapiens) (UniProt Q13237); experiment: Inhibition of human PKG2 at 100 nM using LRRASLG as substrate by [gamma-33P]-ATP assay
Sequence of cGMP-dependent protein kinase 2 (Homo sapiens) (Q13237 whole entry): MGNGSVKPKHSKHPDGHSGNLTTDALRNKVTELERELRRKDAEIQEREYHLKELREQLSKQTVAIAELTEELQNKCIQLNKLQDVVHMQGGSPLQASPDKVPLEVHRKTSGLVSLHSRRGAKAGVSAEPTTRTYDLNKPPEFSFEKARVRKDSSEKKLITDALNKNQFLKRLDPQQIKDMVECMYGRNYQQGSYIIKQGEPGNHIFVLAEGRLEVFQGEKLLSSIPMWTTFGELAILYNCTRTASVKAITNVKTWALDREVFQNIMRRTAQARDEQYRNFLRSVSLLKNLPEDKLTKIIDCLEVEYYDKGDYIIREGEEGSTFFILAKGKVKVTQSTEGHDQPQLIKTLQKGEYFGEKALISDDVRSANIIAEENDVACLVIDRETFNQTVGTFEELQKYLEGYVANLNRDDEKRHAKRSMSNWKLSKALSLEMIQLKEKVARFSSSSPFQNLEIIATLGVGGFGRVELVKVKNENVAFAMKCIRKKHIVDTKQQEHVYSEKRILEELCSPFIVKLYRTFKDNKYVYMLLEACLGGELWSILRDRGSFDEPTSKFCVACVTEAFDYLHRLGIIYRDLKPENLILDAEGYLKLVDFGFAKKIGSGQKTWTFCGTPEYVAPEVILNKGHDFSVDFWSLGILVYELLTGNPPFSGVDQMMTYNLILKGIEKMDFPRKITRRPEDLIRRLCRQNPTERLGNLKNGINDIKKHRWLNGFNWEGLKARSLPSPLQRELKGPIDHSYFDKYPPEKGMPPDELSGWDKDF

[25] = molecular target: Serine/threonine-protein kinase WNK3 (Homo sapiens) (UniProt Q9BYP7); experiment: Inhibition of human WNK3 at 100 nM using MBP as substrate by [gamma-33P]-ATP assay
HCT-116 = experiment: Antiproliferative activity against human HCT116 cells assessed as reduction in cell viability incubated for 72 hrs by MTT assay; type: functional, cell-based; conditions: HCT-116, 72 h
[26] = molecular target: Protein kinase C epsilon type (Homo sapiens) (UniProt Q02156); experiment: Inhibition of human PKCepsilon at 100 nM using ERMRPRKRQGSVRRRV as substrate by [gamma-33P]-ATP assay
[27] = molecular target: Receptor-interacting serine/threonine-protein kinase 2 (Homo sapiens) (UniProt O43353); experiment: Inhibition of human RIPK2 at 100 nM using MBP as substrate by [gamma-33P]-ATP assay
[28] = molecular target: Serine/threonine-protein kinase SBK1 (Homo sapiens) (UniProt Q52WX2); experiment: Inhibition of human SBK1 at 100 nM using LCGRTGRRNSI as substrate by [gamma-33P]-ATP assay
HeLa [29] = experiment: Inhibition of colony formation in human HeLa cells incubated for 2 weeks crystal violet staining based assay; type: functional, cell-based
[30] = molecular target: Tyrosine-protein kinase Lyn (Homo sapiens) (UniProt P07948); experiment: Inhibition of human LYN-B at 100 nM using poly[Glu:Tyr] (4:1) as substrate by [gamma-33P]-ATP assay
Sequence of Tyrosine-protein kinase Lyn (Homo sapiens) (P07948 2-512 limits assumed): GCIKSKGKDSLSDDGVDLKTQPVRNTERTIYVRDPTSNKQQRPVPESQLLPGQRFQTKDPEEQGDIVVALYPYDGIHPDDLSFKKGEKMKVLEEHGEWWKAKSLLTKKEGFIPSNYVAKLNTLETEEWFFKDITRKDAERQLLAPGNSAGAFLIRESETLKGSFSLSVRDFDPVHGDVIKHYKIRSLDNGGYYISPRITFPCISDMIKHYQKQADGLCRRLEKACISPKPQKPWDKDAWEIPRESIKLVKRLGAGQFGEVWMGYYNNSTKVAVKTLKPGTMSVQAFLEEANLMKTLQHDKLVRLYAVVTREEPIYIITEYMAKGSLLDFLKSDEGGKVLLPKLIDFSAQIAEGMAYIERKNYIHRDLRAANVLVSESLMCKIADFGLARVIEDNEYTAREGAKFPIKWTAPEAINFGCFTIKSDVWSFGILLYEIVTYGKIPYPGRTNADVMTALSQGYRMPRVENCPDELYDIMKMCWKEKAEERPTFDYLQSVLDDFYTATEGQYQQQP

Sequence of MAP kinase-activated protein kinase 5 (Homo sapiens) (Q8IW41 whole entry): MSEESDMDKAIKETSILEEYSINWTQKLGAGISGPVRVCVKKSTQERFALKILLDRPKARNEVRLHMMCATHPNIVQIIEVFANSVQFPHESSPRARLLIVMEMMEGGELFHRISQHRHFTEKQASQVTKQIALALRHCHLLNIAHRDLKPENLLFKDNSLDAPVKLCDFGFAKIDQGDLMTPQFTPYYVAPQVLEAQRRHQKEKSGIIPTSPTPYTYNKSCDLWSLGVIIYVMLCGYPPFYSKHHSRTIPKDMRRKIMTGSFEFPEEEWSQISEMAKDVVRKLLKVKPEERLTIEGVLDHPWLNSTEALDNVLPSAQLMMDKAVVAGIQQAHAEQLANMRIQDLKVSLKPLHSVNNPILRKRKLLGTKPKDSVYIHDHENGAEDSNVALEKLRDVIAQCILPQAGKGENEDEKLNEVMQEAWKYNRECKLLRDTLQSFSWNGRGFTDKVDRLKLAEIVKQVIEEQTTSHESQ

Q: With `COc1ccc(N2C(=O)COc3ccc(-c4cnc(OC)c(NS(=O)(=O)c5ccc(F)cc5)c4)cc32)cc1` as the compound, how does the inhibition [1] read?
A: 5.14%

Q: What about the inhibition [2] of the same compound?
A: -2.3%

Q: What about the inhibition [3] of the same compound?
A: 7.92%

Q: And the inhibition [4]?
A: 3.37%

Q: What about the inhibition [5] of the same compound?
A: -3.79%

Q: What about the inhibition [6] of the same compound?
A: 11.3%

Q: And the inhibition [7]?
A: 1.56%

Q: And the inhibition [8]?
A: 19%

Q: What about the inhibition [9] of the same compound?
A: -6.25%

Q: And the inhibition [10]?
A: 16%

Q: And the inhibition [11]?
A: 4.5%

Q: What about the inhibition [12] of the same compound?
A: -3.89%

Q: And the inhibition [13]?
A: 10.6%

Q: What about the inhibition in vivo at 20 mg/kg (HeLa [14]) of the same compound?
A: 66.6%

Q: And the inhibition [15]?
A: 3.37%

Q: What about the inhibition [16] of the same compound?
A: 12.5%

Q: And the inhibition [17]?
A: 22.3%

Q: What about the inhibition [18] of the same compound?
A: 2.55%

Q: What about the inhibition [19] of the same compound?
A: 3.42%

Q: What about the inhibition (Homo sapiens) of the same compound?
A: -3.88%

Q: What about the inhibition [20] of the same compound?
A: -2.26%

Q: What about the inhibition [21] of the same compound?
A: 9.26%

Q: And the Activity [22]?
A: Non-Toxic

Q: And the inhibition [23]?
A: -0.06%

Q: What about the inhibition [24] of the same compound?
A: 1.95%

Q: And the inhibition [25]?
A: -0.32%

Q: What about the IC50 (HCT-116) of the same compound?
A: 13.4 µM

Q: And the inhibition [26]?
A: 3.65%

Q: What about the inhibition [27] of the same compound?
A: 14.2%

Q: What about the inhibition [28] of the same compound?
A: 7.68%

Q: What about the inhibition (HeLa [29]) of the same compound?
A: Dose-dependent effect

Q: What about the inhibition [30] of the same compound?
A: 4.9%
